From US20240417408A1, “SMALL MOLECULE INHIBITORS OF KRAS G12C MUTANT” (MERCK SHARP & DOHME CORP., priority 2021, published 2024)
pIC50: −log10 of the molar value.

Experiments:
[1] = molecular target: T1, Biotinylated KRAS G12C protein and GST-tagged Ras binding domain of c-RAF (Homo sapiens, UniProt P01116, C118S/C51S/C80L/G12C); assay: Test Example 5: RAS:RAF-RBD binding assay (TR-FRET); conditions: 30-minute incubation with compound, then GST-c-RAF RBD, read-out: cRaf IC50
T1 construct: biotin acceptor peptide (Avi-type, […]
T1 sequence (P01116 with tags, fused parts or gaps isoform P01116-2 G12C/C51S/C80L/C118S): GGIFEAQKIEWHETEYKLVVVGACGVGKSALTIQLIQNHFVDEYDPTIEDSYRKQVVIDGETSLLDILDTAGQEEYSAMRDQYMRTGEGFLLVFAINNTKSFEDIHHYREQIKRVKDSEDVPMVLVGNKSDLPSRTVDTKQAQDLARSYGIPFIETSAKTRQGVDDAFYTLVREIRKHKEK
Method: Test Example 5: Procedure for RAS:RAF-RBD Binding Assay
The RAF-Ras binding domain (RBD) protein interaction assay utilizes Biotinylated KRAS G12C protein (SEQ ID NO: 3) and the GST-tagged Ras binding domain of c-RAF (residues 50-132) from Jena Biosciences). Compounds are added to KRAS and then after a 30-minute incubation time the RAF-RBD and detection antibodies are added. Small molecule inhibitors that block the interaction of c-RAF-RBD prevent generation of a TR-FRET signal.
Biotinylated KRAS G12C protein is diluted to 20 nM in assay buffer (20 mM HEPES pH 7.5, 150 mM sodium chloride, 10 mM magnesium chloride, and 0.01% Tween20).
(§1) Each test compound (10 mM stock in DMSO) is diluted in DMSO to make a 10-point, 3-fold dilution series in a 384-well low dead volume microplate (Labcyte, catalog #LP-0200). Once titrations are made, 50 nL of the diluted compounds is acoustically dispensed into 384-well plates (Corning, catalog #3820) using an Echo 655 (Labcyte).
Each well of the assay plate receives 5 μL of Biotinylated KRAS G12C assay solution and is incubated at room temperature for 30 minutes. Each well then receives 5 μL of 100 nM GST-c-RAF RBD protein and a 1:100 dilution of both anti-GST-d2 (Cisbio catalog #61GSTDLA) and Strepavidin-Tb cryptate (Cisbio catalog #610SATLA) in assay buffer and the plate is mixed and briefly centrifuged followed by a 60 minute incubation at room temperature.
(§2) The time-resolved fluorescence resonance energy transfer signal of both plates is measured on an Envision (PerkinElmer) plate reader: dichroic mirror=LANCE/DELFIA DUAL/Bias; Emission1=615 nm; Emission2=665 nm; delay time=60 s. The signal of each well is determined as the ratio of the emission at 665 nm to that at 615 nm. Percent effect of each well is determined after normalization to control wells containing DMSO (no effect) or a saturating concentration of inhibitor (max effect). The apparent effect as a function of compound concentration is fit to a four-parameter logistic equation.

[2] = molecular target: T2, biotinylated KRAS protein containing G12C/C51S/C80L/C118S mutations (SEQ ID NO: 3) (Homo sapiens, UniProt P01116, C118S/C51S/C80L/G12C); assay: Test Example 4: SOS-catalyzed nucleotide exchange assay (TR-FRET); format: biochemical; conditions: 60-minute incubation with compound, then SOS and GTP, read-out: GNE IC50
T2 construct: biotin acceptor peptide (Avi-type, […]
T2 sequence (P01116 with tags, fused parts or gaps isoform P01116-2 G12C/C51S/C80L/C118S): as above
Method: Test Example 4: Procedure for SOS-Catalyzed Nucleotide Exchange Assay
The SOS-catalyzed nucleotide exchange assay utilizes a preformed complex of recombinant biotinylated KRAS protein containing G12C/C51S/C80L/C118S mutations (SEQ ID NO: 3) (referred to as Biotinylated KRAS G12C protein hereafter), Bodipy-GDP, and Terbium-streptavidin. Compounds are added to this complex and then after a 60-minute incubation time the mixture is treated with SOS and unlabeled GTP. Small molecule inhibitors stabilize the Bodipy-GDP complex whereas the untreated protein rapidly exchanges Bodipy-GDP for unlabeled GTP resulting in reduced TR-FRET signal.
Biotinylated KRAS G12C protein is diluted to 2 μM in an EDTA buffer (20 mM HEPES, 50 mM sodium chloride, 10 mM EDTA, and 0.01% Tween) and incubated at room temperature for one hour. This mixture is then further diluted to 90 nM in an assay buffer (20 mM HEPES, 150 mM sodium chloride, 10 mM magnesium chloride, and 0.005% Tween) containing 15 nM of Terbium-Streptavidin (Invitrogen, catalog #PV3577) and 900 nM of Bodipy-GDP (Invitrogen, G22360) and incubated at room temperature for six hours. This solution is referred to as Biotinylated KRAS G12C stock solution and is then diluted to 9 nM in assay buffer to give the KRAS G12C assay solution.
as §1, with “10” for “50”, “into a” for “into”, “plate” for “plates”, “550” for “655”
Each well receives 6 μL of Biotinylated KRAS G12C assay solution using a BioRAPTR (Beckman Coulter) and is incubated at room temperature for 60 minutes in a humidified chamber. Each well then receives 3 μL of 120 nM recombinant human SOS protein and 9 mM GTP (Sigma, G8877) in assay buffer and is incubated at room temperature for 60 minutes in a humidified chamber.
as §2, with “reader: Excitation filter=340 nm; emission 1=495 nm; emission 2=520 nm;” for “reader:”, “mirror=D400/D505;” for “mirror=LANCE/DELFIA DUAL/Bias; Emission1=615 nm; Emission2=665 nm;”, “time=100 μs.” for “time=60 s.”, “520” for “665”, “495” for “615”

[3] = test system: MIA PaCa-2 cells; assay: Test Example 3: growth inhibition activity on KRAS-G12C mutant cell line (MIA PaCa-2); format: cell-based; conditions: Homo sapiens, 72 h, MIA PaCa-2, 3-day culture, CellTiter-Glo 3D, read-out: CTX MiaPaCa IC50
Method: Test Example 3: Assay of Growth Inhibition Activity on KRAS-G12C Mutant Cell Line (MIA PaCa-2) (In Vitro)
MIA PaCa-2 cells (provided by Sumitomo Dainippon Pharma Co., Ltd.), which are a KRAS-G12C mutant human pancreas cancer cell line, were suspended in a 10% fetal bovine serum-containing RPMI1640 medium (manufactured by Fujifilm Wako Pure Chemical Corporation.). The cell suspension was seeded into each well of a 384-well U bottom microplate and cultured in an incubator containing 5% CO2 gas at 37° C. for 1 day. The compounds obtained in the Examples section were used as test compounds and were dissolved in DMSO, respectively, and each test compound was diluted with DMSO to give a concentration 500 times the final concentration. The resultant solution of the test compound in DMSO was diluted with the medium used for suspending cells and added to each well of the cell-culture plate to give a DMSO final concentration of 0.2%, followed by culture in an incubator containing 5% CO2 gas at 37° C. for another 3 days. The cell count after 3-day culture in the presence of the test compound was measured using CellTiter-Glo 3D Reagent (manufactured by Promega Corporation). To all cells were added with CellTiter-Glo 3D Reagent and mixed for 10 minutes. 30 minutes after mixing, luminescence was measured by a plate reader. The growth inhibition rate was calculated from the following equation, and the concentration of the test compound at which 50% inhibition was achieved (IC50 (nM)) was determined.
[formula] • T: the emission intensity in a well into which a test compound was added. • C: the emission intensity in a well into which a test compound was not added.

[4] = molecular target: T3, interaction between KRAS G12C and cRAF-RBD (Homo sapiens, UniProt P01116, G12C); assay: Test Example 2: inhibitory activity on interaction between KRAS G12C and cRAF (Alpha technology); format: binding; conditions: GMPPNP-bound KRAS G12C incubated with compound at 25° C. for 1 hour, then cRAF-RBD
T3 construct: TEV protease site (ENLYFQG); made in house; host or cells: E. coli
T3 sequence (P01116 with tags, fused parts or gaps isoform P01116-2 G12C): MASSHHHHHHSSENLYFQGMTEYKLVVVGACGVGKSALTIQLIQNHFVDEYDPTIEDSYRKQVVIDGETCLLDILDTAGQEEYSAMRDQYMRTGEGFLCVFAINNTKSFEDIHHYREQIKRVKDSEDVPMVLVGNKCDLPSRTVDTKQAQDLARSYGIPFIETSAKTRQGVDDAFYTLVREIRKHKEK
Method: Test Example 2: Evaluation of Inhibitory Activity of Compounds on Interaction Between KRAS G12C and cRAF (In Vitro)
Interaction between recombinant KRAS G12C mutant protein (SEQ ID NO: 1) and cRAF RAS-binding domain (cRAF-RBD, amino acids 50-132, Jena Biosciences GmbH) was measured using Alpha technology (PerkinElmer Inc.).
Recombinant KRAS G12C protein with an N-terminal His-tag was expressed in E. coli and purified by affinity chromatography. To prepare GTP-bound form and GDP-bound form of KRAS G12C protein, 50 μM KRAS G12C protein was incubated with 1 mM GMPPNP (Jena Bioscience GmbH) and 1 mM GDP, respectively, in a loading buffer (20 mM Tris-HCl (pH 7.5), 50 mM NaCl, 1 mM DTT and 2.5 mM EDTA) for 1 hour on ice. After the incubation, MgCl2 was added to a final concentration of 10 mM, followed by incubation at room temperature for 30 minutes. The mixture was allowed to pass through a NAP-5 column to remove free nucleotides and purified, and the resultant nucleotide-bound KRAS G12C protein was used for compound evaluation.
For the measurement of the inhibitory activity of compounds on interaction between KRAS G12C and cRAF-RBD, GMPPNP-bound KRAS G12C protein was incubated with various concentrations of compound in a reaction buffer (20 mM Tris-HCl (pH 7.5), 100 mM NaCl, 1 mM MgCl2, 1 mM TCEP, 0.1% Tween 20) at 25° C. for 1 hour. After the incubation, recombinant cRAF-RBD and Alpha detection reagents were added and incubated at room temperature for 1.5 hours for binding. Interaction of KRAS G12C and cRAF-RBD was monitored by measuring Alpha signal. Inhibition % was calculated using the signal from the reaction without test compound (DMSO control) as 0% inhibition and the signal from the reaction using GDP-bound KRAS G12C in place of GMPPNP-bound KRAS G12C as 100% inhibition. IC50 values were calculated from dose titration curve using curve fitting by XLfit software (IDBS).

[5] = molecular target: T4, Recombinant KRAS G12C mutant protein (amino acids 1-169, SEQ ID NO: 1) (Homo sapiens, UniProt P01116, G12C); assay: Test Example 1: inhibitory activity on KRAS G12C nucleotide (GDP-GTP) exchange reaction in vitro; format: biochemical; conditions: BODIPY FL GDP-bound KRAS G12C incubated with compound at 25° C. for 1 hour, then SOS1 and GMPPNP, read-out: GNE IC50
T4 construct: His6 (N); TEV protease site (ENLYFQG; named from own knowledge) (N); made in house; host or cells: E. coli
T4 sequence (P01116 with tags, fused parts or gaps isoform P01116-2 G12C): as above
Method: Test Example 1: Evaluation of inhibitory activity of compounds on KRAS G12C nucleotide (GDP-GTP) exchange reaction in vitro
Recombinant KRAS G12C mutant protein (amino acids 1-169, SEQ ID NO: 1) and cleaved recombinant SOS1 (amino acids 564-1049, SEQ ID NO:2) proteins were expressed in E. coli and purified by affinity chromatography.
To prepare BODIPY FL GDP-bound KRAS G12C protein, 50 μM KRAS G12C protein was incubated with 0.5 mM BODIPY FL GDP in a loading buffer (20 mM Tris-HCl (pH 7.5), 50 mM NaCl, 1 mM DTT and 2.5 mM EDTA) for 1 hour on ice. After the incubation, MgCl2 was added to a final concentration of 10 mM, followed by incubation at room temperature for 30 minutes. The mixture was allowed to pass through a NAP-5 column to remove free nucleotides and purified BODIPY FL GDP-bound KRAS G12C protein was used for compound evaluation.
For the measurement of the inhibitory activity of compounds on GDP-GTP exchange rate of recombinant KRAS G12C, BODIPY FL GDP-bound KRAS G12C protein was incubated with various concentrations of compound in a reaction buffer (20 mM Tris-HCl (pH 7.5), 100 mM NaCl, 1 mM MgCl2, 2 mM DTT, 0.1% Tween 20) at 25° C. for 1 hour. After the incubation, recombinant SOS1 and Guanosine-5′-[(β,γ)-imido]triphosphate, Tetralithium salt (GMPPNP) (Jena Bioscience GmbH) were added and incubated at room temperature for 30 minutes to proceed SOS1-dependent GDP-GTP exchange reaction on KRAS G12C. Replacement of BODIPY FL GDP by GMPPNP was measured by calculating the ratio of fluorescence intensities of BODIPY FL before and after the exchange reaction. Inhibition % was calculated by setting the fluorescence ratio from the reaction without test compound (DMSO control) and the fluorescence ratio from the reaction without SOS1 and GMPPNP as 0% and 100% inhibition, respectively. IC50 values were calculated from dose titration curve using curve fitting by XLfit software (IDBS).

Row | Structure (SMILES) | pIC50 [1] | pIC50 [2] | pIC50 [3] | pIC50 [4] | pIC50 [5]
1 | COC1CCN(C/C=C/C(=O)N2CCN(c3nc(OC[C@@]45CCCN4C[C@H](F)C5)nc4c3COC(c3c(F)cc(F)c5ccc(N)nc35)C4)C[C@@H]2CC#N)CC1 (single isomer, unassigned) [Example 23a] | < 4.30 | 6.88 | – | – | –
2 | COC1CCN(C/C=C/C(=O)N2CCN(c3nc(OC[C@@]45CCCN4C[C@H](F)C5)nc4c3COC(c3c(F)cc(F)c5ccc(N)nc35)C4)C[C@@H]2CC#N)CC1 (single isomer, unassigned) [Example 23b] | 4.90 | 7.80 | – | – | –
3 | C#Cc1cccc2cccc(C3Cc4nc(OCC56CCCN5CC(F)C6)nc(N5CCN(C(=O)C=CCN6CCC(OC)CC6)C(CC#N)C5)c4CO3)c12 (single isomer, unassigned) [Example 25a] | – | 6.85 | – | – | –
4 | COC1CCN(C/C=C/C(=O)N2CCN(c3nc(OCC4(CN5CCOCC5)CC4)nc4c3COC3(Cc5ccccc5C3)C4)C[C@@H]2CC#N)CC1 [Example 20, (S,E)-2-(1-(4-(4-methoxypiperidin-1-yl)but-2-enoyl)-4-(2′-((1-(morpholinomethyl)cyclopropyl)methoxy)-1,3,5′,8′-tetrahydrospiro[indene-2,7′-pyrano[4,3-d]pyrimidin]-4′-yl)piperazin-2-yl)acetonitrile] | – | – | 5.47 | < 5.18 | 6.76
5 | COC1CCN(C/C=C/C(=O)N2CCN(c3nc(OCC4(CN5CCOCC5)CC4)nc4c3COC3(CCc5cccc(Br)c53)C4)C[C@@H]2CC#N)CC1 (stereo partly drawn) [Example 21, 2-((2S)-4-(7-bromo-2′-((1-(morpholinomethyl)cyclopropyl)methoxy)-2,3,5′,8′-tetrahydrospiro[indene-1,7′-pyrano[4,3-d]pyrimidin]-4′-yl)-1-((E)-4-(4-methoxypiperidin-1-yl)but-2-enoyl)piperazin-2-yl)acetonitrile] | – | – | 5.95 | < 5.18 | 6.54
